In ChEMBL document CHEMBL1151776, “Identification of aquaporin 4 inhibitors using in vitro and in silico methods” (Bioorg Med Chem, 2009):

What was measured:
Assay type in all cases: cell-based
Oocyte [1] = assay: Inhibition of human aquaporin 4 M23 isoform expressed in Xenopus laevis oocytes at 20 uM
[2] = (§1) Inhibition of human aquaporin 4 M23 isoform expressed in Xenopus laevis oocytes; conditions: oocyte
Oocyte [3] = assay: as §1

SMILES | inhibition (Oocyte [1]) | IC50 [2] | Imax (Oocyte [3])
NC(=O)NCCC[C@H](N)C(=O)O | 0% |  | 
O=C(Nc1ccccc1)c1cccnc1 | 26% |  | 
O=C(Nc1nccs1)c1cccnc1 | 30% |  | 
COc1ccccc1OCC(O)CO (centres undefined) | 34% |  | 
CC(C)NC[C@H](O)COc1cccc2ccccc12 | 26% |  | 
CC/C(=C(\c1ccccc1)c1ccc(OCCN(C)C)cc1)c1ccccc1 | 71% |  | 
NS(=O)(=O)c1ccc(Cl)s1 | 18% |  | 
CN(C)CCc1c[nH]c2ccc(Cn3cncn3)cc12 [RIZATRIPTAN] | 52% | 2.9 µM | 54%
Oc1cnc(Nc2nc3ccccc3o2)[nH]1 | 44% |  | 
O=C(Nc1nncs1)c1cccnc1 | 67% | 3.1 µM | 73%
NS(=O)(=O)c1cc(Cl)sc1Cl | 11% |  | 
CN1CCc2cccc3c2[C@H]1Cc1ccc(O)c(O)c1-3 | 40% |  | 
NC(=O)c1nc[nH]c1C(N)=O | 23% |  | 
N[C@@H]1CONC1=O | 3% |  | 
CNS(=O)(=O)Cc1ccc2[nH]cc(CCN(C)C)c2c1 [SUMATRIPTAN] | 54% | 11 µM | 52%
OCC(O)COCc1ccccc1 (centres undefined) | 11% |  | 
O=S(=O)(Cc1ccccc1)Nc1nccs1 | 45% |  | 
CCCC(C)C1(CC)C(=O)NC(=O)NC1=O (centres undefined) | 9% |  | 
